Key:
morningglory [1] = experiment: Test B pre-/postemergence herbicide test; assay type: in vivo, Ipomoea coccinea; conditions: for Morningglory plant response rating: postemergence
Procedure, shortened: (§1)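 Herbicidal effect was judged by eye on a 0–100 scale after plants stood 13 to 15 days in the greenhouse following pre- or postemergence treatment with surfactant-containing formulations.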

giant foxtail [2] = experiment: Test B pre-/postemergence herbicide test; assay type: in vivo, Setaria faberi; conditions: for Foxtail, Giant plant response rating: postemergence
Procedure, shortened: (§2)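 Plants compared with untreated controls 13–15 days post-treatment and given a visual 0–100 injury score. Applications: preemergence to seeds; postemergence at 1- to 4-leaf (2–18 cm); paddy species flooded, 2-leaf stage. Vehicle non-phytotoxic, surfactant included.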

rice [3] = experiment: Test B pre-/postemergence herbicide test; assay type: in vivo, Oryza sativa; conditions: preemergence
Procedure, shortened: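 Greenhouse pot assay with simultaneous preemergence (treated seed) and postemergence (2–18 cm seedlings) applications of surfactant-containing, non-phytotoxic solvent formulations. Response scored visually 13–15 days later on a 0–100 scale, 100 meaning complete control.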

blackgrass = experiment: Test B postemergence herbicide test; assay type: in vivo, Alopecurus myosuroides; conditions: postemergence
Procedure, shortened: (§3)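 Treated at 2-leaf (paddy) or 1–4-leaf, 2–18 cm (postemergence); greenhouse 13–15 d; visual score vs control, 0 none to 100 complete control; dash = not tested.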

large crabgrass [4] = experiment: Test A pre-/postemergence herbicide test; assay type: in vivo, Digitaria sanguinalis
Procedure, shortened: (§4)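 Visual injury rating on a 0–100 scale (0 no effect, 100 complete control) versus untreated controls, about ten days after treatment in greenhouse. Pre: directed soil spray onto seeded sandy loam. Post: spray to runoff on plants 2–10 cm tall at one- to two-leaf stage.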

barnyardgrass [5] = experiment: Test B flooded paddy test; assay type: in vivo, Echinochloa crus-galli; conditions: 1000 g ai/ha, scale 0 to 100 (0 no effect, 100 complete control)
Procedure, shortened: as §3

cocklebur = experiment: Test B pre-/postemergence herbicide test; assay type: in vivo, Xanthium strumarium; conditions: for Cocklebur plant response rating: postemergence
Procedure, shortened: as §1

barnyardgrass [6] = experiment: Test A pre-/postemergence herbicide test; assay type: in vivo, Echinochloa crus-galli
Procedure, shortened: as §4

redroot pigweed = experiment: Test A pre-/postemergence herbicide test; assay type: in vivo, Amaranthus retroflexus
Procedure, shortened: as §4

ducksalad = experiment: Test B flooded paddy test; assay type: in vivo, Heteranthera limosa; conditions: 1000 g ai/ha, scale 0 to 100 (0 no effect, 100 complete control)
Procedure, shortened: as §3

velvetleaf [7] = experiment: Test A pre-/postemergence herbicide test; assay type: in vivo, Abutilon theophrasti
Procedure, shortened: as §4

rice [8] = experiment: Test B flooded paddy test; assay type: in vivo, Oryza sativa; conditions: 1000 g ai/ha, scale 0 to 100 (0 no effect, 100 complete control)
Procedure, shortened: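 Formulated test chemicals went onto postemergence plants measuring 2 to 18 cm, at one to four leaves. For the paddy assay, species had reached two leaves. Scoring took place 13–15 days later by eye, relative to untreated plants, using 0 for no effect up to 100 for full control.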

velvetleaf [9] = experiment: Test B pre-/postemergence herbicide test; assay type: in vivo, Abutilon theophrasti; conditions: for Velvetleaf plant response rating: postemergence
Procedure, shortened: as §2

corn = experiment: Test B pre-/postemergence herbicide test; assay type: in vivo, Zea mays; conditions: for Corn plant response rating: postemergence
Procedure, shortened: as §2

pigweed = experiment: Test B pre-/postemergence herbicide test; assay type: in vivo, Amaranthus retroflexus; conditions: for Pigweed plant response rating: postemergence
Procedure, shortened: as §2

large crabgrass [10] = experiment: Test B pre-/postemergence herbicide test; assay type: in vivo, Digitaria sanguinalis; conditions: for Crabgrass, Large plant response rating: postemergence
Procedure, shortened: as §2

[11] = test system: small flower umbrella sedge; experiment: Test B flooded paddy test; assay type: in vivo, Cyperus difformis; conditions: 1000 g ai/ha, scale 0 to 100 (0 no effect, 100 complete control)
Procedure, shortened: as §3

wild oat = experiment: Test B postemergence herbicide test; assay type: in vivo, Avena fatua; conditions: postemergence
Procedure, shortened: (§5)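 Plants grow to 1- to 4-leaf stage (2–18 cm) for postemergence spraying, or to 2-leaf stage for the paddy test. Formulated compound is applied. Greenhouse holding lasts 13–15 days. Response is scored visually relative to controls, 0 no effect to 100 complete control; a dash means no result.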

barnyardgrass [12] = experiment: Test B pre-/postemergence herbicide test; assay type: in vivo, Echinochloa crus-galli; conditions: for Barnyardgrass plant response rating: postemergence
Procedure, shortened: as §1

morningglory [13] = experiment: Test A pre-/postemergence herbicide test; assay type: in vivo, Ipomoea spp.
Procedure, shortened: as §4

Surinam grass = experiment: Test B pre-/postemergence herbicide test; assay type: in vivo, Urochloa decumbens; conditions: for Surinam Grass plant response rating: postemergence
Procedure, shortened: as §2

wheat = experiment: Test B postemergence herbicide test; assay type: in vivo, Triticum aestivum; parameters: key to Wheat plant response rating: 0 = no effect, 100 = complete control; conditions: postemergence
Procedure, shortened: as §5

lambsquarters = experiment: Test B pre-/postemergence herbicide test; assay type: in vivo, Chenopodium album; conditions: for Lambsquarters plant response rating: postemergence
Procedure, shortened: as §2

giant foxtail [14] = experiment: Test A pre-/postemergence herbicide test; assay type: in vivo, Setaria faberi
Procedure, shortened: as §4

[15] = 125 g ai/ha, 0 is no effect, 100 is complete control, preemergence
[16] = 125 g ai/ha, visual rating, scale 0 (no effect) to 100 (complete control)
[17] = 500 g ai/ha, visual rating, 0 = no effect, 100 = complete control, preemergence
[18] = 500 g ai/ha, scale 0 to 100, 0 is no effect, 100 is complete control
[19] = Postemergence, 500 g ai/ha, 0 to 100 scale, 0 no effect, 100 complete control
[20] = Postemergence, 2000 g ai/ha, 0 to 100 scale, 0 no effect, 100 complete control
[21] = Preemergence, 2000 g ai/ha, visual rating, 0 to 100 scale (0 no effect, 100 complete control)
[22] = preemergence, 500 g ai/ha, visual injury, 0 to 100 scale (0 no effect, 100 complete control)

CCSCNC(=O)c1cccc(NC(=O)c2cc(C(C)(C)C)nn2CC)c1 [Compound 329]
Plant response rating (0 to 100 scale), Morningglory (morningglory [1]; [15]): 0
Morningglory plant response rating (morningglory [1]; [16]): 0
Plant response rating, Morningglory (morningglory [1]; [17]): 0
Morningglory plant response rating (morningglory [1]; [18]): 20
Plant response rating (0 to 100 scale), Foxtail, Giant (giant foxtail [2]; [15]): 0
Foxtail, Giant plant response rating (giant foxtail [2]; [16]): 10
Plant response rating, Foxtail, Giant (giant foxtail [2]; [17]): 0
Foxtail, Giant plant response rating (giant foxtail [2]; [18]): 30
Plant response rating (0 to 100 scale), Rice (rice [3]; 125 g ai/ha, 0 is no effect, 100 is complete control): 0
Plant response rating, Rice (rice [3]; 500 g ai/ha, visual rating, 0 = no effect, 100 = complete control): 0
Blackgrass plant response rating (blackgrass; [16]): 20
Blackgrass plant response rating (blackgrass; [18]): 20
Crabgrass, Large plant response rating (large crabgrass [4]; [19]): 10
Plant response rating, Crabgrass, Large (large crabgrass [4]; [20]): 5
Crabgrass, Large plant response rating (large crabgrass [4]; [21]): 0
Crabgrass, Large plant response rating (large crabgrass [4]; [22]): 0
Barnyardgrass plant response rating (barnyardgrass [5]): 0
Plant response rating (0 to 100 scale), Cocklebur (cocklebur; [15]): 0
Cocklebur plant response rating (cocklebur; [16]): 0
Plant response rating, Cocklebur (cocklebur; [17]): 0
Cocklebur plant response rating (cocklebur; [18]): 30
Barnyardgrass plant response rating (barnyardgrass [6]; [19]): 15
Plant response rating, Barnyardgrass (barnyardgrass [6]; [20]): 20
Barnyardgrass plant response rating (barnyardgrass [6]; [21]): 5
Barnyardgrass plant response rating (barnyardgrass [6]; [22]): 0
Pigweed plant response rating (redroot pigweed; [19]): 10
Plant response rating, Pigweed (redroot pigweed; [20]): 45
Pigweed plant response rating (redroot pigweed; [21]): 10
Pigweed plant response rating (redroot pigweed; [22]): 5
Ducksalad plant response rating (ducksalad): 0
Velvetleaf plant response rating (velvetleaf [7]; [19]): 10
Plant response rating, Velvetleaf (velvetleaf [7]; [20]): 25
Velvetleaf plant response rating (velvetleaf [7]; [21]): 10
Velvetleaf plant response rating (velvetleaf [7]; [22]): 0
Rice plant response rating (rice [8]): 0
Plant response rating (0 to 100 scale), Velvetleaf (velvetleaf [9]; [15]): 0
Velvetleaf plant response rating (velvetleaf [9]; [16]): 10
Plant response rating, Velvetleaf (velvetleaf [9]; [17]): 0
Velvetleaf plant response rating (velvetleaf [9]; [18]): 30
Plant response rating (0 to 100 scale), Corn (corn; [15]): 0
Corn plant response rating (corn; [16]): 0
Plant response rating, Corn (corn; [17]): 0
Corn plant response rating (corn; [18]): 20
Plant response rating (0 to 100 scale), Pigweed (pigweed; [15]): 0
Pigweed plant response rating (pigweed; [16]): 50
Plant response rating, Pigweed (pigweed; [17]): 0
Pigweed plant response rating (pigweed; [18]): 80
Plant response rating (0 to 100 scale), Crabgrass, Large (large crabgrass [10]; [15]): 0
Crabgrass, Large plant response rating (large crabgrass [10]; [16]): 0
Plant response rating, Crabgrass, Large (large crabgrass [10]; [17]): 0
Crabgrass, Large plant response rating (large crabgrass [10]; [18]): 10
Sedge, Umbrella plant response rating [11]: 0
Oat, Wild plant response rating (wild oat; [16]): 20
Oat, Wild plant response rating (wild oat; [18]): 30
Plant response rating (0 to 100 scale), Barnyardgrass (barnyardgrass [12]; [15]): 0
Barnyardgrass plant response rating (barnyardgrass [12]; [16]): 0
Plant response rating, Barnyardgrass (barnyardgrass [12]; [17]): 0
Barnyardgrass plant response rating (barnyardgrass [12]; [18]): 10
Morningglory plant response rating (morningglory [13]; [19]): 10
Plant response rating, Morningglory (morningglory [13]; [20]): 20
Morningglory plant response rating (morningglory [13]; [21]): 10
Morningglory plant response rating (morningglory [13]; [22]): 0
Plant response rating (0 to 100 scale), Surinam Grass (Surinam grass; [15]): 0
Surinam Grass plant response rating (Surinam grass; [16]): 10
Plant response rating, Surinam Grass (Surinam grass; [17]): 0
Surinam Grass plant response rating (Surinam grass; [18]): 20
Wheat plant response rating (wheat; [16]): 20
Wheat plant response rating (wheat; [18]): 30
Plant response rating (0 to 100 scale), Lambsquarters (lambsquarters; [15]): 0
Lambsquarters plant response rating (lambsquarters; [16]): 30
Lambsquarters plant response rating (lambsquarters; [18]): 70
Foxtail, Giant plant response rating (giant foxtail [14]; [19]): 10
Plant response rating, Foxtail, Giant (giant foxtail [14]; [20]): 20
Foxtail, Giant plant response rating (giant foxtail [14]; [21]): 5
Foxtail, Giant plant response rating (giant foxtail [14]; [22]): 0

Source: patent US20060069132A1, “Azolecarboxamide herbicides” (priority 2004, published 2006)
